# According to a polymer gas permeability compilation:
H2 permeability [Barrer],N2 permeability [Barrer],O2 permeability [Barrer],CH4 permeability [Barrer],CO2 permeability [Barrer],Structure (SMILES)
329,10.7,43.9,7.2,202,*c1ccc2c(c1)C1c3ccccc3C2c2cc(N3C(=O)c4ccc(C(c5ccc6c(c5)C(=O)N(*)C6=O)(C(F)(F)F)C(F)(F)F)cc4C3=O)ccc21 (repeat unit)
10.6,1.8,9.7,0.89,32,*Oc1c(Br)cc(C(c2cc(Br)c(OC(*)=O)c(Br)c2)(C(F)(F)F)C(F)(F)F)cc1Br (repeat unit)
8.38,0.11,0.64,0.12,3.27,*Oc1ccc(C(=O)c2ccc(-c3ccc(C(=O)c4ccc(Oc5ccc(S(=O)(=O)c6ccc(*)cc6)cc5)cc4)cc3)cc2)cc1 (repeat unit)
2.72,0.05,0.35,0.03,1.87,*c1ccc2c(-c3c(O)ccc4cc(N5C(=O)c6ccc(Oc7ccc8c(c7)C(=O)N(*)C8=O)cc6C5=O)ccc34)c(O)ccc2c1 (repeat unit)
10.6,0.11,0.69,0.111,2.8,*Oc1ccc(C(C)(C)c2cccc(C(C)(C)c3ccc(Oc4ccc(S(=O)(=O)c5ccc(*)cc5)cc4)cc3)c2)cc1 (repeat unit)
–,1.71,10.2,1.01,53.9,*c1ccc(-c2ccc(Oc3ccc(C4(c5ccc(Oc6ccc(-c7ccc(N8C(=O)c9ccc(C(c%10ccc%11c(c%10)C(=O)N(*)C%11=O)(C(F)(F)F)C(F)(F)F)cc9C8=O)cc7)cc6C(F)(F)F)cc5)c5ccccc5C(=O)N4c4ccccc4)cc3)c(C(F)(F)F)c2)cc1 (repeat unit)
21,0.241,1.35,0.136,6,*c1cccc(Oc2ccc(C(c3ccc(Oc4cccc(N5C(=O)c6ccc(C(c7ccc8c(c7)C(=O)N(*)C8=O)(C(F)(F)F)C(F)(F)F)cc6C5=O)c4)cc3)(C(F)(F)F)C(F)(F)F)cc2)c1 (repeat unit)
37.3,0.958,4.54,0.736,16.6,*Oc1ccc(C(c2ccc(OC(=O)c3cccc(C(*)=O)c3)cc2)(C(F)(F)F)C(F)(F)F)cc1 (repeat unit)
110,2.5,13,2.2,67,*c1c(C)c(C)c(N2C(=O)c3ccc(Oc4cc(C(C)(C)C)cc(C)c4Oc4ccc5c(c4)C(=O)N(*)C5=O)cc3C2=O)c(C)c1C (repeat unit)
18,0.55,2.3,0.33,7.6,*Oc1ccc(Cc2ccc(Oc3c(F)c(F)c(COC(C4CCCC(C(OCc5c(F)c(F)c(*)c(F)c5F)(C(F)(F)F)C(F)(F)F)C4)(C(F)(F)F)C(F)(F)F)c(F)c3F)cc2)cc1 (repeat unit)
145,13,39,–,–,*C(C(=O)OC(C)CC)C(*)C(=O)OC(C)(C)C (repeat unit)
4420,341,1390,563,7880,*Oc1cc2c(cc1O*)C1(c3ccccc3-c3cc4c(cc31)Oc1c(C#N)c(*)c(*)c(C#N)c1O4)c1cc(C)c(C)cc1-2 (repeat unit)
2.4,0.027,0.15,–,0.92,*Oc1ccc(-c2nn(-c3ccc(S(=O)(=O)c4ccc(*)cc4)cc3)c(=O)c3ccccc23)cc1 (repeat unit)
5.95,0.14,0.98,0.09,4.32,*c1ccc2c(-c3c(O)ccc4cc(N5C(=O)c6ccc(C(c7ccc8c(c7)C(=O)N(*)C8=O)(C(F)(F)F)C(F)(F)F)cc6C5=O)ccc34)c(O)ccc2c1 (repeat unit)
20,0.281,1.8,0.28,7,*Oc1c(C)cc(C(C)(C)c2cccc(C(C)(C)c3cc(C)c(Oc4ccc(S(=O)(=O)c5ccc(*)cc5)cc4)c(C)c3)c2)cc1C (repeat unit)
51,0.83,4.8,0.7,27,*c1c(C)c(C)c(N2C(=O)c3ccc(Oc4c(C)cccc4Oc4ccc5c(c4)C(=O)N(*)C5=O)cc3C2=O)c(C)c1C (repeat unit)
169,16,49,–,–,*C(C(=O)OC(C)CC(C)C)C(*)C(=O)OC(C)(C)C (repeat unit)
41,0.65,3.9,0.57,22,*c1cc(C)c(C)c(N2C(=O)c3ccc(Oc4cc(C)ccc4Oc4ccc5c(c4)C(=O)N(*)C5=O)cc3C2=O)c1C (repeat unit)

# More lines, now with the values behind:
Structure (SMILES),H2 permeability [Barrer],N2 permeability [Barrer],O2 permeability [Barrer],CH4 permeability [Barrer],CO2 permeability [Barrer]
*OC1OC(CO[N+](=O)[O-])C(OC2OC(O[N+](=O)[O-])C(O*)C(O)C2O[N+](=O)[O-])C(O)C1O[N+](=O)[O-] (repeat unit),2,0.12,0.6,–,–
*c1c(C)c(C)c(N2C(=O)c3ccc(Oc4c(C)ccc(C)c4Oc4ccc5c(c4)C(=O)N(*)C5=O)cc3C2=O)c(C)c1C (repeat unit),100,2.05,11,1.9,63
*Oc1ccc(C(c2ccc(Oc3c(F)c(F)c(COC(C4CCCC(C(OCc5c(F)c(F)c(*)c(F)c5F)(C(F)(F)F)C(F)(F)F)C4)(C(F)(F)F)C(F)(F)F)c(F)c3F)cc2)(C(F)(F)F)C(F)(F)F)cc1 (repeat unit),28,0.9,3.8,0.55,12
*Sc1ccc(*)cc1 (repeat unit),–,0.046,0.19,0.066,1.6
*CC(*)(Cl)Cl (repeat unit),–,0.000939,0.00519,–,0.029
*Nc1ccc(*)cc1 (repeat unit),3.66,0.0165,0.135,0.0094,0.67
*C(=C(*)c1ccc([Si](c2ccccc2)(c2ccccc2)c2ccccc2)cc1)c1ccccc1 (repeat unit),51.7,2.78,12.1,5.58,78.8
*CC(CCl)O* (repeat unit),8.9,0.44,1.05,–,–
*CC(C)C(=O)OCCOC(=O)C(C)C* (repeat unit),15,1.6,4.7,4.8,95
*NCCCCCC(*)=O (repeat unit),–,–,0.036,–,0.165
*c1c(C)cc(-c2cc(C)c(N3C(=O)c4cc5c(cc4C3=O)C3(C(C)C)c4ccccc4C5(C(C)C)c4cc5c(cc43)C(=O)N(*)C5=O)c3ccccc23)c2ccccc12 (repeat unit),2170,145,550,190,2910
*Oc1ccc(C23CC4CC(C2)CC(c2ccc(Oc5ccc(S(=O)(=O)c6ccc(*)cc6)cc5)cc2)(C4)C3)cc1 (repeat unit),27.8,0.455,2.55,0.396,9.5
*Oc1ccc(C(c2ccc(OC(=O)c3cc(C(*)=O)cc(C(C)(C)C)c3)cc2)(C(F)(F)F)C(F)(F)F)cc1 (repeat unit),86.7,3.72,15.7,3.47,56.9
*Oc1ccc(S(=O)(=O)c2ccc(Oc3ccc(C(C)(C)c4ccc(*)cc4)cc3)cc2)cc1 (repeat unit),14,0.249,1.4,0.258,5.6
*Oc1c(C)cc(*)c([N+](=O)[O-])c1C (repeat unit),–,2.4,11.5,2.4,40.4
*Oc1c(C)cc(*)cc1C (repeat unit),68.7,3.5,14.6,4.1,66
*c1ccc(*)c(C(=O)c2ccccc2)c1 (repeat unit),27.4,0.4,2.99,0.36,14.2
*/C(C)=C(/*)c1ccc([Si](C)(C)C)cc1 (repeat unit),510,100,240,200,950
*CC(*)OC(=O)c1cccc(C)c1 (repeat unit),–,0.0875,0.496,0.118,2.13
*Oc1c(C)cc(C(C)(C)c2cc(C)c(OC(=O)c3cc(C(*)=O)cc(C(C)(C)C)c3)c(Br)c2)cc1Br (repeat unit),–,1.06,6.27,1.06,22.7
*CC(*)(C)C(=O)OC (repeat unit),4.1,0.0113,0.0885,0.00565,0.35
*Oc1ccc(N2C(=O)CCC23CCC(=O)N3c2ccc(Oc3c(F)c(F)c(COC(C4CCCC(C(OCc5c(F)c(F)c(*)c(F)c5F)(C(F)(F)F)C(F)(F)F)C4)(C(F)(F)F)C(F)(F)F)c(F)c3F)cc2)cc1 (repeat unit),21,0.46,2.2,0.25,7.1
